Assay results from the supplement of paper PMC10307832.

Tests used:
Test in all cases: relative viability (nuclei count vs DMSO), 5 days (fraction); higher = more cells survive
Crizotinib + Lapatinib = compound: C[C@@H](Oc1cc(-c2cnn(C3CCNCC3)c2)cnc1N)c1c(Cl)ccc(F)c1Cl [Crizotinib] + CS(=O)(=O)CCNCc1ccc(-c2ccc3ncnc(Nc4ccc(OCc5cccc(F)c5)c(Cl)c4)c3c2)o1 [Lapatinib] (partner 2 µM)
Outline: (§1)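 Relative viability was taken as the ratio of nuclei in treated wells to nuclei in vehicle wells. Lung cancer cell lines in 1536-well plates received compounds by pin tool one day after seeding, either one drug alone or a fixed anchor-drug dose plus five library-drug doses (not always all listed) in √10 steps. Nuclei were counted on 4× images after 5 days of treatment, and values are medians of duplicate plates.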

Olaparib + AZD7762 = compound: O=C(c1cc(Cc2n[nH]c(=O)c3ccccc23)ccc1F)N1CCN(C(=O)C2CC2)CC1 [Olaparib] + NC(=O)Nc1cc(-c2cccc(F)c2)sc1C(=O)N[C@H]1CCCNC1 [AZD7762] (partner 0.2 µM)
Outline: as §1

Olaparib + OSI-027 = compound: O=C(c1cc(Cc2n[nH]c(=O)c3ccccc23)ccc1F)N1CCN(C(=O)C2CC2)CC1 [Olaparib] + COc1cccc2cc(-c3nc([C@H]4CC[C@H](C(=O)O)CC4)n4ncnc(N)c34)[nH]c12 [OSI-027] (partner 0.5 µM)
Outline: as §1

Carfilzomib + Vorinostat = compound: CC(C)C[C@H](NC(=O)[C@H](CCc1ccccc1)NC(=O)CN1CCOCC1)C(=O)N[C@@H](Cc1ccccc1)C(=O)N[C@@H](CC(C)C)C(=O)[C@@]1(C)CO1 [Carfilzomib] + O=C(CCCCCCC(=O)Nc1ccccc1)NO [Vorinostat] (partner 1 µM)
Outline: as §1

Cell Line	relative viability (Crizotinib + Lapatinib; first compound 0.01 µM)	relative viability (Crizotinib + Lapatinib; first compound 0.03162 µM)	relative viability (Crizotinib + Lapatinib; first compound 0.1 µM)	relative viability (Crizotinib + Lapatinib; first compound 0.3162 µM)	relative viability (Crizotinib + Lapatinib; first compound 1 µM)	relative viability (Olaparib + AZD7762; first compound 0.08 µM)	relative viability (Olaparib + AZD7762; first compound 0.253 µM)	relative viability (Olaparib + AZD7762; first compound 2.53 µM)	relative viability (Olaparib + AZD7762; first compound 8 µM)	relative viability (Olaparib + OSI-027; first compound 0.08 µM)	relative viability (Olaparib + OSI-027; first compound 0.253 µM)	relative viability (Olaparib + OSI-027; first compound 2.53 µM)	relative viability (Olaparib + OSI-027; first compound 8 µM)	relative viability (Carfilzomib + Vorinostat; first compound 0.001 µM)	relative viability (Carfilzomib + Vorinostat; first compound 0.003162 µM)	relative viability (Carfilzomib + Vorinostat; first compound 0.01 µM)	relative viability (Carfilzomib + Vorinostat; first compound 0.03162 µM)	relative viability (Carfilzomib + Vorinostat; first compound 0.1 µM)
NCI-H1666	0.618	0.678	0.587	0.657	0.682	0.892	0.725	0.781	0.835	0.845	0.791	0.717	0.758	0.972	0.933	1.15	1.03	0.599
NCI-H1734	1.03	1.05	1	–	1.04	0.611	0.49	0.441	0.333	0.662	0.516	0.486	0.374	0.75	0.932	0.592	0.119	0.109
NCI-H1755	1	1.04	1.07	0.938	1.03	0.452	0.451	0.489	0.399	0.803	0.64	0.647	0.638	0.806	0.793	0.664	0.464	0.383
NCI-H1915	0.902	0.95	1.01	–	0.969	0.544	0.561	0.404	0.245	0.612	0.572	0.533	0.374	0.499	0.537	0.452	0.517	0.0617
NCI-H1944	0.751	0.82	0.767	0.715	0.863	0.511	0.729	0.43	0.383	0.404	0.362	0.369	0.374	0.523	0.744	0.527	0.505	0.215
NCI-H1975	0.719	1.01	0.971	0.798	0.869	0.793	0.727	0.705	0.765	0.761	0.703	0.848	0.758	0.706	0.611	0.261	0.129	0.135
NCI-H1993	0.687	0.843	0.781	0.681	0.707	0.748	0.736	1.04	0.824	0.585	0.502	0.389	0.527	0.631	0.804	0.876	0.366	0.288
NCI-H2085	0.724	0.899	0.785	0.709	0.715	1.1	0.875	0.962	0.881	1.15	0.687	0.698	0.751	0.71	0.879	0.497	0.222	0.3
NCI-H2087	0.936	1.07	0.915	0.557	1.06	1.43	1.15	1.3	0.959	0.794	0.489	0.501	0.49	0.474	0.601	0.225	0.0585	0.0243
NCI-H2126	0.701	0.763	0.765	0.763	0.727	1.08	0.942	0.959	0.948	0.766	0.669	0.794	0.639	0.748	0.868	0.904	0.716	0.222
NCI-H2170	0.274	0.283	0.261	0.243	0.241	0.718	0.857	0.627	0.398	0.809	0.685	0.679	0.694	0.751	0.86	0.916	0.404	0.152
NCI-H2347	0.982	0.902	0.906	0.888	0.933	0.905	0.749	0.665	0.549	0.472	0.371	0.344	0.37	0.712	0.53	0.432	0.352	0.303
NCI-H2405	1.05	0.975	0.999	0.952	–	0.86	0.741	0.632	0.636	0.717	0.625	0.636	0.583	0.998	1.17	1.06	0.376	0.148
NCI-H3122	0.985	0.891	0.951	0.962	0.763	1.03	0.945	0.908	0.559	1.14	0.954	1.01	0.814	0.841	0.819	1.06	0.747	0.329
PC-3 [JPC-3]	0.408	0.448	0.446	0.422	0.459	0.887	–	0.866	0.926	0.825	0.711	0.824	0.747	0.784	0.808	1.1	0.475	0.229
PC-14	0.297	0.339	0.312	0.304	0.304	0.4	0.334	0.355	0.205	1.27	0.795	0.805	0.471	0.71	0.754	0.228	0.0369	0.0418
RERF-LC-KJ	0.801	0.881	0.853	–	0.838	1.11	0.825	0.883	1.08	0.66	0.592	0.598	0.614	0.7	0.683	0.676	0.392	0.242
